Test results: publication PMC11401107 (Heliyon, 2024)
Values belong to the compound of their own block, whether it stands above or below them.

Columns and labels:
[1] = test system: human blood mononuclear cells (MNCs); assay: Cell viability assay; type: cell-based; conditions: MNCs; 0.25 mM; Mean ± SEM, n = 3
soybean 15-LOX = target: T1, soybean 15-LOX (Glycine max, UniProt P08170); assay: 15-LOX inhibition assay; type: biochemical; conditions: for 15-LOX assay Inhibition (%) at 0.25 mM / 15-LOX assay IC50 (μM) / IC50: Mean ± SEM, n = 3; for IC50: read-out: 15-LOX assay IC50; for inhibition at 250 µM: read-out: 15-LOX assay Inhibition (%) at 0.25 mM
T1 sequence (P08170 1-839): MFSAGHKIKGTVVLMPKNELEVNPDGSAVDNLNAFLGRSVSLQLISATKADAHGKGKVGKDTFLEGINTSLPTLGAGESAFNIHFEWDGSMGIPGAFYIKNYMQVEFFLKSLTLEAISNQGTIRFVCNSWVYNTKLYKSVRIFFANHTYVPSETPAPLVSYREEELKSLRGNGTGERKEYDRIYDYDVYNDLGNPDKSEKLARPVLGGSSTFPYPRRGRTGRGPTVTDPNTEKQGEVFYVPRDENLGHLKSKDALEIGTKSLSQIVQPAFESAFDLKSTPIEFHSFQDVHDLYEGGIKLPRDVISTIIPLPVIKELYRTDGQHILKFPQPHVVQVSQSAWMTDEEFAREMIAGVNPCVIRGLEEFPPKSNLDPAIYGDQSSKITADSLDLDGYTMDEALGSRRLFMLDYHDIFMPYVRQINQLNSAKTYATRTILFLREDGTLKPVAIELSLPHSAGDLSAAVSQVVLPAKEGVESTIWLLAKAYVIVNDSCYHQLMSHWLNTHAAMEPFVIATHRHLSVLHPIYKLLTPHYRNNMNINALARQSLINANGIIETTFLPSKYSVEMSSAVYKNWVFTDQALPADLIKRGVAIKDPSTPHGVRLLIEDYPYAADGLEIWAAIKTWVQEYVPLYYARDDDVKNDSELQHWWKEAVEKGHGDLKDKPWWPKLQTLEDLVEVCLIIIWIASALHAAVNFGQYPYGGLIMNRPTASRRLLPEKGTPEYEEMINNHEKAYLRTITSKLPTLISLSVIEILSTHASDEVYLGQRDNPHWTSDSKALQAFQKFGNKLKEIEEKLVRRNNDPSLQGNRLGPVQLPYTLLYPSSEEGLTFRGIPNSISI

Cell viability assay = type: cell-based, human; conditions: human, human blood mononuclear cells (MNCs), pH 7.4
LOX = LOX inhibition; cited from earlier work

SMILES: COc1cc(/C=C/C(=O)CC(=O)/C=C/c2ccc(O)c(OC)c2)ccc1O [Curcumin, reference compound]
viability at 2 h, 0.25 mM (Cell viability assay): 71.8 ± 2.8%

SMILES: O=P1(N(CCCl)CCCl)NCCCO1 (centres unmarked) [Cyclophosphamide, reference compound]
viability at 2 h, 0.25 mM (Cell viability assay): 58.5 ± 2.6%

SMILES: COc1ccc(-c2csc3nc(-c4ccccc4)c(NC(C)(C)CC(C)(C)C)n23)cc1 [i, 3-(4-methoxyphenyl)-N-(2,4,4-trimethylpentane-2-yl)-6-phenylimidazo [2,1-b]thiazol-5-amine]
IC50 (LOX): 11.5 ± 0.78 µM

SMILES: Cc1ccc(NN=C2C(=N)N(c3ccc(S(N)(=O)=O)cc3)N=C2N)cc1 [ii, 4-{3-amino-4-[(4-methylphenyl)-hydrazono]-5-imino-4,5-dihydropyrazol-1-yl}-benzenesulfonamide]
IC50 (LOX): 1.92 ± 0.01 µM

More lines, main results first:

15-LOX assay Inhibition (%) at 0.25 mM (soybean 15-LOX): 56.49 ± 1.59%
15-LOX assay IC50 (μM) (soybean 15-LOX): inactive
IC50 (soybean 15-LOX): > 200 µM
SMILES: CCn1c(SC(C)C(=O)Nc2c(C)cccc2C)nnc1C1CCN(C(=O)Nc2ccccc2)CC1 (centres unmarked) [7k, 2-(5-(1-Phenylcarbamoylpiperdine-4-yl)-4-ethyl-4H-1,2,4-triazol-3-ylthio)-N-2,6-dimethylphenylpropanamide]
MTT assay Cell viability (%) at 0.25 mM [1]: 75.67 ± 2.8%

15-LOX assay Inhibition (%) at 0.25 mM (soybean 15-LOX): 57.37 ± 1.46%
15-LOX assay IC50 (μM) (soybean 15-LOX): inactive
IC50 (soybean 15-LOX): > 200 µM
SMILES: CCn1c(SC(C)C(=O)Nc2cc(C)cc(C)c2)nnc1C1CCN(C(=O)Nc2ccccc2)CC1 (centres unmarked) [7m, 2-(5-(1-Phenylcarbamoylpiperdine-4-yl)-4-ethyl-4H-1,2,4-triazol-3-ylthio)-N-3,5-dimethylphenylpropanamide]
MTT assay Cell viability (%) at 0.25 mM [1]: 78.24 ± 2.7%

inhibition at 250 µM (soybean 15-LOX): 93.8 ± 1.27%
SMILES: O=c1cc(-c2ccccc2)oc2cc(O)c(O)c(O)c12 [Baicalein, reference compound]

inhibition at 250 µM (soybean 15-LOX): 96.6 ± 1.24%
SMILES: O=c1c(O)c(-c2ccc(O)c(O)c2)oc2cc(O)cc(O)c12 [Quercetin, reference compound]
